These compounds were tested against T1, BTK (Homo sapiens, UniProt Q06187) (assay: BTK HTRF degradation assay). Conditions: treatment time 24 h; Cisbio Total-BTK HTRF; Rec-1 / Ramos cells.
T1 construct: endogenous in cells; host or cells: Rec-1 cells (ATCC) / Ramos cells
T1 sequence (Q06187 whole entry): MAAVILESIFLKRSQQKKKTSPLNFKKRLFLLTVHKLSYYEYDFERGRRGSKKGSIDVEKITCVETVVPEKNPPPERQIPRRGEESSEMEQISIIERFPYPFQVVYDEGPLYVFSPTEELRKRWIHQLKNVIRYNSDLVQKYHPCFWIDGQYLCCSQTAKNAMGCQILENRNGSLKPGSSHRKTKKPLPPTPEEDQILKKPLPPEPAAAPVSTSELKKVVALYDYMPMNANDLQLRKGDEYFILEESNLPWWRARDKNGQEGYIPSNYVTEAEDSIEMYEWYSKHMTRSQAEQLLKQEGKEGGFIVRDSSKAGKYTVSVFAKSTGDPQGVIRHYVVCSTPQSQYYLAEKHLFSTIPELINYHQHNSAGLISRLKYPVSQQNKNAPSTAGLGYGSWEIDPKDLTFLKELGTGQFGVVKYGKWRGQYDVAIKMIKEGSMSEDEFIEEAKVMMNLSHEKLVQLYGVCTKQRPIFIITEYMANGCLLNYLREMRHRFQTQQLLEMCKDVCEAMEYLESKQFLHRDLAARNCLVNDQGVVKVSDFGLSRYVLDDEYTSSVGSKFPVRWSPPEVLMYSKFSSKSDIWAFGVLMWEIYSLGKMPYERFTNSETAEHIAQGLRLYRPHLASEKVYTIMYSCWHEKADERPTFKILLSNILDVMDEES
Type: cell-based
Description: Rec-1 cells were obtained from American Type Culture Collection and were grown in RPMI-1640 media (ATCC, 30-2001) supplemented with 10% heat-inactivated FBS (Corning Premium Fetal Bovine Serum from Fisher, MT35015CV). Compounds of the present invention were added to 50,000 Ramos cells in round-bottom 96 well plates with a final DMSO concentration of […] and were incubated at 37° C. 5% CO2 for different time. BTK levels were determined using Cisbio Total-BTK HTRF ([…] Time-Resolved Fluorescence) kit (63ADK064PEG) according to manufacturer's protocol. Briefly, cells were incubated in 1× supplied lysis buffer for 30 minutes. In an opaque white low volume 96 well plate (Cisbio, 66PL96005), cell lysate was combined with two different specific BTK antibodies, one conjugated with Eu3+-Cryptate FRET donor and one conjugated with d2 FRET acceptor. Assay controls include wells containing cell lysate with only the Eu3+-Cryptate FRET donor antibody and wells containing both HTRF antibodies and lysis buffer without cells or control lysate provided by Cisbio. HTRF ratio was calculated as (acceptor signal at 665 nm/donor signal at 620 nm)×[…]. Background HTRF levels were determined from the control well containing the donor, but no acceptor, antibody. Background HTRF levels were subtracted from all samples. Readouts were reported as HTRF levels relative to HTRF levels of DMSO-treated cells. Four-parameter non-linear regressions were performed in GraphPad Prism 7.02 to obtain DC50 values.
In the case of C[C@H]1CN([C@H]2CCN3c4ccc5c(c4OC[C@@H]3C2)C(=O)N(C2CCC(=O)NC2=O)C5=O)CCN1c1ccc(Nc2cc(-c3ccnc(N4CCn5c(cc6c5CC(C)(C)C6)C4=O)c3CO)cn(C)c2=O)nc1.Cl (stereo partly drawn) [Example 18], the Dmax % is reported as 93%. C[C@H]1CN(C2CCN(c3ccc4c(c3)C(=O)N(C3CCC(=O)NC3=O)C4=O)CC2)CCN1c1ccc(Nc2cc(-c3ccnc(N4CCc5c(sc6c5CCCC6)C4=O)c3CO)cn(C)c2=O)nc1 (stereo partly drawn) [Example 11, 2-(2,6-dioxopiperidin-3-yl)-5-{4-[(3S)-4-(6-{[3′-(hydroxymethyl)-1-methyl-6-oxo-2′-{6-oxo-8-thia-5-azatricyclo[7.4.0.0^{2,7}]trideca-1(9),2(7)-dien-5-yl}-[3,4′-bipyridin]-5-yl]amino}pyridin-3-yl)-3-methylpiperazin-1-yl]piperidin-1-yl}isoindole-1,3-dione] gave a DC50 of 9.49 nM and a Dmax % of 99%. C[C@H]1CN(C2CCN(c3ccc4c(c3)C(=O)N(C3CCC(=O)NC3=O)C4=O)CC2)CCN1c1ccc(Nc2cc(-c3ccnc(N4CCn5c(cc6c5CC(C)(C)C6)C4=O)c3CO)ncn2)nc1 (stereo partly drawn) [Example 15, 5-{4-[(3S)-4-(6-{[6-(2-{4,4-dimethyl-9-oxo-1,10-diazatricyclo[6.4.0.0^{2,6}]dodeca-2(6),7-dien-10-yl}-3-(hydroxymethyl)pyridin-4-yl)pyrimidin-4-yl]amino}pyridin-3-yl)-3-methylpiperazin-1-yl]piperidin-1-yl}-2-(2,6-dioxopiperidin-3-yl)isoindole-1,3-dione] showed a DC50 of 21.7 nM and a Dmax % of 98%. Compound C[C@H]1CN(C2CCN(c3ccc4c(c3)C(=O)N(C3CCC(=O)NC3=O)C4=O)CC2)CCN1c1ccc(Nc2cc(-c3ccnc(N4CCc5c(sc6c5CCCC6)C4=O)c3CO)cn(C)c2=O)nc1 (stereo partly drawn) [Example 9, 2-(2,6-dioxopiperidin-3-yl)-5-{4-[(3S)-4-(6-{[3′-(hydroxymethyl)-1-methyl-6-oxo-2′-{6-oxo-8-thia-5-azatricyclo[7.4.0.0^{2,7}]trideca-1(9),2(7)-dien-5-yl}-[3,4′-bipyridin]-5-yl]amino}pyridin-3-yl)-3-methylpiperazin-1-yl]piperidin-1-yl}isoindole-1,3-dione] has a DC50 of 0.9 nM and a Dmax % of 99%. Compound C[C@H]1CN([C@H]2CCN3c4ccc5c(c4OC[C@H]3C2)C(=O)N(C2CCC(=O)NC2=O)C5=O)CCN1c1ccc(Nc2cc(-c3ccnc(N4CCn5c(cc6c5CC(C)(C)C6)C4=O)c3CO)cn(C)c2=O)nc1.Cl (stereo partly drawn) [Example 17, hydrochloride] has a DC50 of 3.58 nM. For C[C@H]1CN(C2CC(C#Cc3ccc4c(c3)C(=O)N(C3CCC(=O)NC3=O)C4=O)C2)CCN1c1ccc(Nc2cc(-c3ccnc(N4CCn5c(cc6c5CC(C)(C)C6)C4=O)c3CO)cn(C)c2=O)nc1 (stereo partly drawn) [Example 3, 5-((3-((S)-4-(6-((2′-(7,7-dimethyl-1-oxo-1,3,4,6,7,8-hexahydro-2H-cyclopenta[4,5]pyrrolo[1,2-a]pyrazin-2-yl)-3′-(hydroxymethyl)-1-methyl-6-oxo-1,6-dihydro-[3,4′-bipyridin]-5-yl)amino)pyridin-3-yl)-3-methylpiperazin-1-yl)cyclobutyl)ethynyl)-2-(2,6-dioxopiperidin-3-yl)isoindoline-1,3-dione], the DC50 was 2.04 nM and the Dmax was 97%. For COc1ncc(-c2ccnc(N3CCn4c(cc5c4CC(C)(C)C5)C3=O)c2CO)cc1Nc1ccc(N2CCN(C3CCN(c4ccc5c(c4)C(=O)N(C4CCC(=O)NC4=O)C5=O)CC3)C[C@@H]2C)cn1 (stereo partly drawn) [Example 14, 5-{4-[(3S)-4-{6-[(2′-{4,4-dimethyl-9-oxo-1,10-diazatricyclo[6.4.0.0^{2,6}]dodeca-2(6),7-dien-10-yl}-3′-(hydroxymethyl)-6-methoxy-[3,4′-bipyridin]-5-yl)amino]pyridin-3-yl}-3-methylpiperazin-1-yl]piperidin-1-yl}-2-(2,6-dioxopiperidin-3-yl)isoindole-1,3-dione], the DC50 was 1.15 nM and the Dmax % was 94%. C[C@H]1CN([C@@H]2CCN3c4ccc5c(c4OC[C@H]3C2)C(=O)N(C2CCC(=O)NC2=O)C5=O)CCN1c1ccc(Nc2cc(-c3ccnc(N4CCn5c(cc6c5CC(C)(C)C6)C4=O)c3CO)cn(C)c2=O)nc1 (stereo partly drawn) [Example 16, (5aR,7R)-7-((S)-4-(6-((2′-(7,7-dimethyl-1-oxo-1,3,4,6,7,8-hexahydro-2H-cyclopenta[4,5]pyrrolo[1,2-a]pyrazin-2-yl)-3′-(hydroxymethyl)-1-methyl-6-oxo-1,6-dihydro-[3,4′-bipyridin]-5-yl)amino)pyridin-3-yl)-3-methylpiperazin-1-yl)-2-(2,6-dioxopiperidin-3-yl)-5,5a,6,7,8,9-hexahydro-1H-pyrido[1′,2′:4,5][1,4]oxazino[2,3-e]isoindole-1,3(2H)-dione] was tested, and the DC50 was 29.6 nM and the Dmax was 97%. In the case of “5-{4-[(3S)-4-{6-[(6-tert-butyl-2′. {4,4-dimethyl-9-oxo-1,10-diazatricyclo[6.4.0.0^{2,6}]dodeca-2(6),7-dien-10-yl}-3′-(hydroxymethyl)-[3,4′-bipyridin]-5-yl)amino]pyridin-3-yl}-3-methylpiperazin-1-yl]piperidin-1-yl}-2-(2,6-dioxopiperidin-3-yl)isoindole-1,3-dione [Example 12]”, the DC50 is reported as > 1000 nM and the Dmax % is reported as 7%. C[C@H]1CN([C@H]2CCN3c4ccc5c(c4OC[C@H]3C2)C(=O)N(C2CCC(=O)NC2=O)C5=O)CCN1c1ccc(Nc2cc(-c3ccnc(N4CCn5c(cc6c5CC(C)(C)C6)C4=O)c3CO)cn(C)c2=O)nc1.Cl (stereo partly drawn) [Example 17] was tested, and the Dmax % was 95%. Compound C[C@H]1CN(C2CN(c3ccc4c(c3)C(=O)N(C3CCC(=O)NC3=O)C4=O)C2)CCN1c1ccc(Nc2cc(-c3ccnc(N4CCn5c(cc6c5CC(C)(C)C6)C4=O)c3CO)cn(C)c2=O)nc1 (stereo partly drawn) [Example 1, 5-{3-[(3S)-4-{6-[(2′-{4,4-dimethyl-9-oxo-1,10-diazatricyclo[6.4.0.0^{2,6}]dodeca-2(6),7-dien-10-yl}-3′-(hydroxymethyl)-1-methyl-6-oxo-[3,4′-bipyridin]-5-yl)amino]pyridin-3-yl}-3-methylpiperazin-1-yl]azetidin-1-yl}-2-(2,6-dioxopiperidin-3-yl)isoindole-1,3-dione] has a DC50 of 1.16 nM and a Dmax % of 100%. Work on Cc1c(-c2cc(Nc3ccc(N4CCN(C5CCN(c6ccc7c(c6)C(=O)N(C6CCC(=O)NC6=O)C7=O)CC5)C[C@@H]4C)cn3)c(=O)n(C)c2)ccnc1N1CCn2c(cc3c2CC(C)(C)C3)C1=O (stereo partly drawn) [Example 10, 5-{4-[(3S)-4-{6-[(2′-{4,4-dimethyl-9-oxo-1,10-diazatricyclo[6.4.0.0^{2,6}]dodeca-2(6),7-dien-10-yl}-1,3′-dimethyl-6-oxo-[3,4′-bipyridin]-5-yl)amino]pyridin-3-yl}-3-methylpiperazin-1-yl]piperidin-1-yl}-2-(2,6-dioxopiperidin-3-yl)isoindole-1,3-dione] yielded a DC50 of 4.63 nM and a Dmax % of 99%. For C[C@H]1CN([C@H]2CCN3c4ccc5c(c4OC[C@@H]3C2)C(=O)N(C2CCC(=O)NC2=O)C5=O)CCN1c1ccc(Nc2cc(-c3ccnc(N4CCn5c(cc6c5CC(C)(C)C6)C4=O)c3CO)cn(C)c2=O)nc1.Cl (stereo partly drawn) [Example 18, hydrochloride], the DC50 was 22.8 nM. For C[C@H]1CN(C2CCN(c3ccc4c(c3)C(=O)N(C3CCC(=O)NC3=O)C4=O)CC2)CCN1c1ccc(Nc2cc(-c3ccnc(N4CCn5c(cc6c5CC(C)(C)C6)C4=O)c3CO)ccn2)nc1 (stereo partly drawn) [Example 13, 5-{4-[(3S)-4-{6-[(2′-{4,4-dimethyl-9-oxo-1,10-diazatricyclo[6.4.0.0^{2,6}]dodeca-2(6),7-dien-10-yl}-3′-(hydroxymethyl)-[4,4′-bipyridin]-2-yl)amino]pyridin-3-yl}-3-methylpiperazin-1-yl]piperidin-1-yl}-2-(2,6-dioxopiperidin-3-yl)isoindole-1,3-dione], the DC50 was 4.4 nM and the Dmax % was 98%.

From patent publication US20240058457A1, “BTK DEGRADER” (Newave Pharmaceutical Inc., priority 2020, published 2024)
